# From ChEMBL document CHEMBL1201862, “PubChem BioAssay data set” (2004)
# Structures can show the parent of a compound that is named as a salt. Calls of active or inactive are those of the source.
# Experiments:
# [1] = molecular target: DNA dC->dU-editing enzyme APOBEC-3G (Homo sapiens, UniProt Q9HC16); test: Dose Response confirmation of small molecule APOBEC3G DNA Deaminase Inhibitors via a fluorescence-based single-stranded DNA deaminase assay. [Related pubchem assays (depositor defined):AID493012, AID493028]; type: functional
# [2] = molecular target: FAD-linked sulfhydryl oxidase ALR (Homo sapiens, UniProt P55789); test: inhibitors of human ALR sulfhydryl oxidase, dose response, biochemical, H2O2 detection, luminescence, cherry-pick (AID 493248)
# [3] = cytotoxicity in HEK-293T cells, dose response, cytotoxicity control for BCR NF-kB inhibitor project, luminescence, B-cell screen hits (AID 489021); type: functional, cell-based;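 note: HEK-293T cells carrying an NF-kB luciferase reporter; cells exposed to compound for about 14 hours before viability readout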
# [4] = system: Streptococcus sp. 'group A'; test: growth inhibition of control SK(-) GAS strain, dose response, counter-screen for streptokinase expression inhibitor project, luminescence, kanamycin, BacTiterGlo, confirmation (AID 1900); type: functional, organism-based
# Streptokinase A = molecular target: T1, Streptokinase A (Streptococcus pyogenes serotype M1, UniProt P10520); test: S. pyogenes streptokinase expression inhibitors, potency, dose response, plasminogen activation absorbance, OD405 (AID 1914); type: functional, Streptococcus pyogenes M1 GAS;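 note: secreted streptokinase activity via plasminogen activation per viability signal from cell pellet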
# T1 sequence (P10520 whole entry): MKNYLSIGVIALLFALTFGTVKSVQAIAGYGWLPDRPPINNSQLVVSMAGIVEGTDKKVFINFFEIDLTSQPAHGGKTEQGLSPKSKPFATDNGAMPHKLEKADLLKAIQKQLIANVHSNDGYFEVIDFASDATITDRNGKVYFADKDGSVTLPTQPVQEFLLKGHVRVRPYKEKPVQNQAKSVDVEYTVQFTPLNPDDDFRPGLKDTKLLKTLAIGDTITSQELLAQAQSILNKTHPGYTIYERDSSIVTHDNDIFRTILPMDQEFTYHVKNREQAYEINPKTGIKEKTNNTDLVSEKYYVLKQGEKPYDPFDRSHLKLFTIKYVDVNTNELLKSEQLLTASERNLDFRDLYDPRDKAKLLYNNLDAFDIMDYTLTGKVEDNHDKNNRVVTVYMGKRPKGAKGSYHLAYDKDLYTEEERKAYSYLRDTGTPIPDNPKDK
# [5] = Luminescence Cell-Based Dose Retest to Confirm Inhibitors of Cancer Stem Cells. [Related pubchem assays (depositor defined):AID2717, AID2721]; type: functional; details: Homo sapiens
# Streptococcus = test: Group A Streptococcus viability loss, dose response, counter-screen for streptokinase expression inhibitor project, luminescence, BacTiterGlo (AID 1915); type: functional, organism-based;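 note: potency for reduction of bacterial viability or growth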
# [6] = molecular target: T2, Heat shock factor protein 1 (Mus musculus, UniProt P38532); test: inhibition of MG132-induced HSE-luciferase signal, confirmation, cell-based, NIH3T3, luminescence, dose retest (AID 2382); type: functional;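 note: NIH3T3 fibroblasts with HSF1-driven luciferase reporter stressed by proteasome inhibitor MG132; luminescence from HSF1-driven luciferase expression after 8 hours of MG132 stress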
# T2 sequence (P38532 whole entry): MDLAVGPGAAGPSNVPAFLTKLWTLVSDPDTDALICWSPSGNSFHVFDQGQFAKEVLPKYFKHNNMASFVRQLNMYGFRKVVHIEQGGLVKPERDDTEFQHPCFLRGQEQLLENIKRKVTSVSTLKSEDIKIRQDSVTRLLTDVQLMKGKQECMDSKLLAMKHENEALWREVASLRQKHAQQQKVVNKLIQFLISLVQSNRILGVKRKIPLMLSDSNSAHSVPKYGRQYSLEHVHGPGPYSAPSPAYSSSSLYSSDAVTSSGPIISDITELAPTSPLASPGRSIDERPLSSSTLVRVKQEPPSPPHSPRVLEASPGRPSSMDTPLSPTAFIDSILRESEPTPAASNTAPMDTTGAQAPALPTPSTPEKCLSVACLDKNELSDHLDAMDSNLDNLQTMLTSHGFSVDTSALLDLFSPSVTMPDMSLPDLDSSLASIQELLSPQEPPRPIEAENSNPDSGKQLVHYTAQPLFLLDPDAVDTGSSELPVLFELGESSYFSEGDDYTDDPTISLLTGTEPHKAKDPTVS
# [7] = A cytotoxicity screen of small molecule inhibitors of the PhoP region in Salmonella typhi identified in the primary screen. [Related pubchem assays: 1850, 1864, 1985 ]; type: functional
# [8] = molecular target: Eukaryotic translation initiation factor 4E (Mus musculus, UniProt P63073); test: eIF4E–eIF4G protein interaction inhibitors, dose response, biochemical, TR-FRET (AID 855); type: functional;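 note: potency for disrupting eIF4E binding to eIF4GI seen as loss of FRET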
# Ion channel NompC = Ion channel NompC (Danio rerio, UniProt Q7T1G6); test: Fluorescence counterscreen assay for TRPML3 agonists: dose response cell-based high-throughput screening assay to identify agonists of the transient receptor potential channel N1 (TRPN1). [Related pubchem assays: 1526, 1424, 1448 ]; type: functional
# Mucolipin-3 = molecular target: T3, Mucolipin-3 (Homo sapiens, UniProt Q8TDD5); test: Dose response cell-based high-throughput screening assay for agonists of the transient receptor potential channel ML3 (TRPML3). [Related pubchem assays: 1526, 1424, 1448 ]; type: functional
# T3 sequence (Q8TDD5 whole entry): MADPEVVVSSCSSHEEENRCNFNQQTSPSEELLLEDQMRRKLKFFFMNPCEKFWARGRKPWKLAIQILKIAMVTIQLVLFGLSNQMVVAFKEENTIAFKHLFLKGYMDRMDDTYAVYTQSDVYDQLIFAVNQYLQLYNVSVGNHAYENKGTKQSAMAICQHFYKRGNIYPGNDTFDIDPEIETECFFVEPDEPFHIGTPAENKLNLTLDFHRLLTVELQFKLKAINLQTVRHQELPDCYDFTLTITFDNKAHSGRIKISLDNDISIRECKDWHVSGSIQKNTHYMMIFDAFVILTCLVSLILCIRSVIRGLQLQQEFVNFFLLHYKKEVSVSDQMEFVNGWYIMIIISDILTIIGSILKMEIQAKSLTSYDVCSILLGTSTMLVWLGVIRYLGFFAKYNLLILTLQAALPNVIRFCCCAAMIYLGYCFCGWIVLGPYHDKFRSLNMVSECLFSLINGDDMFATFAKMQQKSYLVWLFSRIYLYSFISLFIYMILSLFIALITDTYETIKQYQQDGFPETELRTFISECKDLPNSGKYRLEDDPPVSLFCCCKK
# Large T antigen = Large T antigen (Simian virus 40, UniProt P03070); type: functional, Betapolyomavirus macacae;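 note: Confirmatory-stage PubChem screen for compounds that inhibit SV40 T antigen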
# [9] = molecular target: T4, Short transient receptor potential channel 4 (Mus musculus, UniProt Q9QUQ5); test: mouse TRPC4 channel activators, dose response, cell-based, HEK293 TRPC4/mu-opioid, Fluo-4 calcium (AID 434937); type: functional
# T4 sequence (Q9QUQ5 whole entry): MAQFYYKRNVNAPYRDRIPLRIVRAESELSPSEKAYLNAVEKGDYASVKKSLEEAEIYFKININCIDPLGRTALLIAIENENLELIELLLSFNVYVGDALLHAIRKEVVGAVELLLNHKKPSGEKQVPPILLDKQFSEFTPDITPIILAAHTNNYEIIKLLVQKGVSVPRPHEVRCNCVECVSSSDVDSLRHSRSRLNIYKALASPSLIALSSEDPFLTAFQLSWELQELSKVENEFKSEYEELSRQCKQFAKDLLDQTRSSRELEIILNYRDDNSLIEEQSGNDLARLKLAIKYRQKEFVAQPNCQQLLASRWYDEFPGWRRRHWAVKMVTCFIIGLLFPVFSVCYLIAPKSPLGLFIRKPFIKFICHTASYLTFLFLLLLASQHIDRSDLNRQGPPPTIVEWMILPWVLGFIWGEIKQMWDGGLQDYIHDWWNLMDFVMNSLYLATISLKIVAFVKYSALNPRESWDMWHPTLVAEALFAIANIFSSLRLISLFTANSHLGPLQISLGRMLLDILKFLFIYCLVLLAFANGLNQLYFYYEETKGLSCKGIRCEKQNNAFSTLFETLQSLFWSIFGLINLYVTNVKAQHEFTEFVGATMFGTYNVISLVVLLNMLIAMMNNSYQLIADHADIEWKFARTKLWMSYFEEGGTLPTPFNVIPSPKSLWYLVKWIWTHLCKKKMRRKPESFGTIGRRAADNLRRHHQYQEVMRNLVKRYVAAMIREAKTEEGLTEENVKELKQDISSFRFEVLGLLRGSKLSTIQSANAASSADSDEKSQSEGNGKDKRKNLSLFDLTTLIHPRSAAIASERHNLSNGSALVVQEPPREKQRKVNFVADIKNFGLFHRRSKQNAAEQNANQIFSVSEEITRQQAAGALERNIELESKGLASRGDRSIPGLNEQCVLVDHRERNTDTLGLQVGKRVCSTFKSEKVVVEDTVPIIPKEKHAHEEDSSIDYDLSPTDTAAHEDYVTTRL
# [10] = molecular target: Induced myeloid leukemia cell differentiation protein Mcl-1 (Homo sapiens, UniProt Q07820); type: functional
# [11] = molecular target: T5, Carboxy-terminal domain RNA polymerase II polypeptide A small phosphatase 1 (Homo sapiens, UniProt Q9GZU7); test: inhibitors of CTDSP1, concentration-response testing, biochemical assay, absorbance-based, actives from ultra-high-throughput screening (AID 540297); type: functional
# T5 sequence (Q9GZU7 whole entry): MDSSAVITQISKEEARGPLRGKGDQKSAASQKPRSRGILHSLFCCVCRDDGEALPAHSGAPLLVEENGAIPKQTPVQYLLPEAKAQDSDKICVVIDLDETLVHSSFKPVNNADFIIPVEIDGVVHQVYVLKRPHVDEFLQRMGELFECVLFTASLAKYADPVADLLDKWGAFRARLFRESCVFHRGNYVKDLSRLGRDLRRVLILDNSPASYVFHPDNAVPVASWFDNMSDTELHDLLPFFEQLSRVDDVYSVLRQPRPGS
# Caspase-6 = molecular target: T6, Caspase-6 (Homo sapiens, UniProt P55212); test: human caspase-6 inhibitors, dose response, biochemical, VEID-R110 fluorescence, cherry-pick (AID 720632)
# T6 sequence (P55212 whole entry): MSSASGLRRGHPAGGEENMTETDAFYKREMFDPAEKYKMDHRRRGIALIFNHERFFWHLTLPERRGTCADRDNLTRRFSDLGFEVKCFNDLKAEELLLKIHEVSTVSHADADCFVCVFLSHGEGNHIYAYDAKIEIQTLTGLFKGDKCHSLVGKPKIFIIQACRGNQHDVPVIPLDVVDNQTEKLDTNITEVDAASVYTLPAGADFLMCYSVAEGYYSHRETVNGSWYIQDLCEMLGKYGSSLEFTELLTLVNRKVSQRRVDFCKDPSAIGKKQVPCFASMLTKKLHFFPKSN
# Cytochrome P450 2D6 = Cytochrome P450 2D6 (Homo sapiens, UniProt P10635);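 note: CYP2D6 member of a cytochrome P450 panel assay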
# Chain of Cytochrome P450 2D6 (P10635 whole entry): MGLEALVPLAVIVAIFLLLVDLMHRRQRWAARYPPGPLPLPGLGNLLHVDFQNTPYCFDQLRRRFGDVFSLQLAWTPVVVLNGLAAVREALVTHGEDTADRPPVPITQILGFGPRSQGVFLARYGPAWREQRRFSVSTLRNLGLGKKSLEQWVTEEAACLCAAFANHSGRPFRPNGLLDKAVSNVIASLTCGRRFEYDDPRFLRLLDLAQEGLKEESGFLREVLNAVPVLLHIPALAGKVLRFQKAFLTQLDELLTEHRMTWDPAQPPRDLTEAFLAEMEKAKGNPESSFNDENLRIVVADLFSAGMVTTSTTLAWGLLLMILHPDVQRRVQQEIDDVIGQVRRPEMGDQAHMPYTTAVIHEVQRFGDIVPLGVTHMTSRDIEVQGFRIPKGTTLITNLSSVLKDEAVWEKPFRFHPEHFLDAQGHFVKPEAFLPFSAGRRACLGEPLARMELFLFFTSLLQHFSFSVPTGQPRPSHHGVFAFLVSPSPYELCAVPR
# Chain of Eukaryotic translation initiation factor 4E (P63073 whole entry): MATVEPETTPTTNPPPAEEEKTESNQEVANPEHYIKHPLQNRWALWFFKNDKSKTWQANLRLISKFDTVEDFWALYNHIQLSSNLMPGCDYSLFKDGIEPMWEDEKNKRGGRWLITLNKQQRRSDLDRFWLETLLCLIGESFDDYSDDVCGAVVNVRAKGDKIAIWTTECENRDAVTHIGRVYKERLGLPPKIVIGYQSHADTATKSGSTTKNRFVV
# Chain of Ion channel NompC (Q7T1G6 whole entry): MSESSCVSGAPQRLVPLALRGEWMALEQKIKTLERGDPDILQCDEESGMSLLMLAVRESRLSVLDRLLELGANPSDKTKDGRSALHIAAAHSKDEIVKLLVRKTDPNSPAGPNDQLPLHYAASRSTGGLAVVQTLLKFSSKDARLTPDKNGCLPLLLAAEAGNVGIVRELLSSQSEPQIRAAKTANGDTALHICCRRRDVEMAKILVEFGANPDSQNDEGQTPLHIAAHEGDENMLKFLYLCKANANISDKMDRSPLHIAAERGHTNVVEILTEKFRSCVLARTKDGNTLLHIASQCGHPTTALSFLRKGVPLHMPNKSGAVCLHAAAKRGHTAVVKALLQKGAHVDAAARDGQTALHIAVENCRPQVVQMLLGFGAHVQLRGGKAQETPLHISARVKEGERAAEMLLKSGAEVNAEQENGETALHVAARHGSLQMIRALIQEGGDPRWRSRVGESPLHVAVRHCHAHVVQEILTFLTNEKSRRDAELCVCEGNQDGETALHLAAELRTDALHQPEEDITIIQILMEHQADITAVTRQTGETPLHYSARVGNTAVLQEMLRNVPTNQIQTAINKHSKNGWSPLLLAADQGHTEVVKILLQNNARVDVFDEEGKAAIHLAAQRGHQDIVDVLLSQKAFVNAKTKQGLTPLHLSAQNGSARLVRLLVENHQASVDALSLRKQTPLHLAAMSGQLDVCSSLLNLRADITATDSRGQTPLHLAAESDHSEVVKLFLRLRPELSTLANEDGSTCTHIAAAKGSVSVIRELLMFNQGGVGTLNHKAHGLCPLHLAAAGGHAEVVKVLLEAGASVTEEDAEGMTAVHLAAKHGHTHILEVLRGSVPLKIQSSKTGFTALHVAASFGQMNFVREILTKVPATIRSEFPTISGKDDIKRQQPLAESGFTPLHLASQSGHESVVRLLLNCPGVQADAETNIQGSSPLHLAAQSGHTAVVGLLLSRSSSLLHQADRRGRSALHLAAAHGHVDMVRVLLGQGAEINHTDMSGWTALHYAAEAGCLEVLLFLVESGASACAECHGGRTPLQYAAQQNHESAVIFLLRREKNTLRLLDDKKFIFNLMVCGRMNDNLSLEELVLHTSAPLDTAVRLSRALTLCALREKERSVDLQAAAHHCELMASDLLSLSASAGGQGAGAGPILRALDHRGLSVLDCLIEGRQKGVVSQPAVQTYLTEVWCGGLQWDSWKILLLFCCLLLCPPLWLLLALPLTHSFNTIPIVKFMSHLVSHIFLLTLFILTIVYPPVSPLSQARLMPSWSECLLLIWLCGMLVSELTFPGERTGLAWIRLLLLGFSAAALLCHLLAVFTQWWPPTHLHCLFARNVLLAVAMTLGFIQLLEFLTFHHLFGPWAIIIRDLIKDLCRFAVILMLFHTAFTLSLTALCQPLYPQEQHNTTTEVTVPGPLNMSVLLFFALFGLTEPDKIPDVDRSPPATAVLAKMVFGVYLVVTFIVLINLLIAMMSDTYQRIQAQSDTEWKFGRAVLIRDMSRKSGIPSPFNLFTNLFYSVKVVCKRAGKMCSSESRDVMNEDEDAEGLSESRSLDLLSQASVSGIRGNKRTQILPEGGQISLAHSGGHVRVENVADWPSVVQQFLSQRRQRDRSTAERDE
# Chain of DNA dC->dU-editing enzyme APOBEC-3G (Q9HC16 whole entry): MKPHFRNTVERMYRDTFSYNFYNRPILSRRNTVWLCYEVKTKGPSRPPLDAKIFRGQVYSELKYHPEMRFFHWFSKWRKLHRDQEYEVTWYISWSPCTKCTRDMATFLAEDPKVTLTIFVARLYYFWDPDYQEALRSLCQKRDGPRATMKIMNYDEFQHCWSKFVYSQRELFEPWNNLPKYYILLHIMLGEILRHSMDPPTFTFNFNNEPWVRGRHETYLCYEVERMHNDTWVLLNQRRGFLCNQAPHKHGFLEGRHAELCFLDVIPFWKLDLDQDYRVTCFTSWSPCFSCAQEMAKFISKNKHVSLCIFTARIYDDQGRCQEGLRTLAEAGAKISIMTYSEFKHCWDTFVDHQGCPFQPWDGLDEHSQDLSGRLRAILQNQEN
# Chain of FAD-linked sulfhydryl oxidase ALR (P55789 whole entry): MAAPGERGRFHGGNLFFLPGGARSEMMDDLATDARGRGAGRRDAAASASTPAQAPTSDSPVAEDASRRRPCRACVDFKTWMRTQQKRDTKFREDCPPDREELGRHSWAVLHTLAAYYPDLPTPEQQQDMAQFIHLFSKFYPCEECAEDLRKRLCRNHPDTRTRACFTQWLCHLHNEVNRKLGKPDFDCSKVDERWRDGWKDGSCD
# Chain of Induced myeloid leukemia cell differentiation protein Mcl-1 (Q07820 whole entry, the tested form may be a part): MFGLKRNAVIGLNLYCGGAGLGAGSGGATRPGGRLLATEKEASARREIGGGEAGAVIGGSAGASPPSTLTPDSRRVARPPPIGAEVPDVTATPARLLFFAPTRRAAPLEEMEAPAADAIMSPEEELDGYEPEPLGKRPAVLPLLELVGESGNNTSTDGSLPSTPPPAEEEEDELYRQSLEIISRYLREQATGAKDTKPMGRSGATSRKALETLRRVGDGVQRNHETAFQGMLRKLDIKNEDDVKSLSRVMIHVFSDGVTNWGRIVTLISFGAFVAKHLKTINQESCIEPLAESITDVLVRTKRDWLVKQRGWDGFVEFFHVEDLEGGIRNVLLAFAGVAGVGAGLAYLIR
# Chain of Large T antigen (P03070 whole entry): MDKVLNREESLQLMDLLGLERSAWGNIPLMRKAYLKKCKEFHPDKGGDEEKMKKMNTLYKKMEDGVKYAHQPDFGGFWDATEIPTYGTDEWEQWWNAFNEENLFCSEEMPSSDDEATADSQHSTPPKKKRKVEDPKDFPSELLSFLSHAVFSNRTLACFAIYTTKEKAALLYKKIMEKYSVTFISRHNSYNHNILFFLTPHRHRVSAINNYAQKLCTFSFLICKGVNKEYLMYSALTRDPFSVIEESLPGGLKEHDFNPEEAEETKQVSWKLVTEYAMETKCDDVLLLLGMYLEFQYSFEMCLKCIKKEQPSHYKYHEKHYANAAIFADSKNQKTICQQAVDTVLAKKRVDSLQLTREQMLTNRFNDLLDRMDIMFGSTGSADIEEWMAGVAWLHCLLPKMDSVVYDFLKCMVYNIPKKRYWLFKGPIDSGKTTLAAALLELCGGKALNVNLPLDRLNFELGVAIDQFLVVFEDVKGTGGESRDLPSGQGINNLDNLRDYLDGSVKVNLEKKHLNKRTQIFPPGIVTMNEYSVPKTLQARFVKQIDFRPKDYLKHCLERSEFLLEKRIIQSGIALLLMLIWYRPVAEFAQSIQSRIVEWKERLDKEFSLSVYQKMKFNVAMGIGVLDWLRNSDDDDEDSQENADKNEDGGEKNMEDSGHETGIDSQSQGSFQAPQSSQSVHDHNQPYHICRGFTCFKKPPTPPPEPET
smiles,measurement,setting,value
Sc1nnc(Nc2ccccc2)s1,IC50,[1],0.892 µM (active)
same,AC50,[2],1.91 µM (active)
COc1ccc(-n2ncc3c(N4CCC(C(N)=O)CC4)ncnc32)cc1,IC50,[3],> 80 µM (inactive)
Cn1nc(-c2ccc(N3CCOCC3)c(NS(=O)(=O)c3ccccc3)c2)c2ccccc2c1=O,IC50,[3],> 80 µM (inactive)
CCOC(=O)c1sc(NC(=O)c2cc(-c3ccccc3C)nc3ccccc23)c(C#N)c1C,EC50,[4],1.04 µM (active)
same,IC50,[3],62.1 µM (inactive)
same,EC50,Streptokinase A,> 150 µM (not active)
same,AC50,[5],0.693 µM (active)
same,EC50,Streptococcus,36.2 µM (active)
CCOC(=O)C(CC)Sc1ccc2nnc(-c3cccnc3)n2n1 (configuration not stated),EC50,[6],> 195 µM (not active)
same,EC50,[7],> 50 µM (active)
Cc1ccc(S(=O)(=O)NCC(=O)N(CC(=O)NCC2CCCO2)C2CCCC2)cc1 (configuration not stated),IC50,[8],> 64 µM (inactive)
C=C(C)Cn1c(C)cc(C)c(S(=O)(=O)c2ccccc2C)c1=O,EC50,Ion channel NompC,> 29.9 µM (not active)
same,EC50,Mucolipin-3,5.9 µM (active)
CC(C)CCn1c(=O)c2ccccc2n2c(=S)[nH]nc12,IC50,Large T antigen,14.7 µM (active)
same,IC50,[1],1.19 µM (active)
O=C(Nc1cccc([N+](=O)[O-])c1)Nc1cccs1,EC50,[7],> 50 µM (active)
O=C1c2ccccc2CCCC12N=NCC2c1cccc2ccccc12 (configuration not stated),EC50,Ion channel NompC,> 29.9 µM (not active)
same,EC50,Mucolipin-3,3.31 µM (active)
COC(=O)C1=CCCN(C)C1 [ARECOLINE HYDROBROMIDE],EC50,[9],6.68 µM (active)
same,EC50,Ion channel NompC,> 29.9 µM (not active)
same,EC50,Mucolipin-3,2.26 µM (active)
O=C(CSc1ccsc1[N+](=O)[O-])Nc1cccc(F)c1,IC50,[10],2.92 µM (active)
same,IC50,[8],50 µM (inactive)
same,IC50,[11],3.65 µM (active)
same,AC50,Caspase-6,16.3 µM (active)
CCOC(=O)CSc1nnc(CSc2nc(C)cc(C)n2)n1Cc1ccco1,IC50,[8],> 64 µM (inactive)
Oc1ccc(C(=S)N2CCN(c3cccc(Cl)c3)CC2)cc1,IC50,[1],81 µM (active)
COc1ccc(-c2c/c(=N\CC(=O)O)c3ccccc3o2)cc1.[O-][Cl+3]([O-])([O-])O,EC50,[7],> 50 µM (active)
CN(C1CCCCC1)S(=O)(=O)c1cccc(C#N)c1,EC50,Ion channel NompC,> 29.9 µM (not active)
same,EC50,Mucolipin-3,3.58 µM (active)
COc1ccc(/C=N/n2c(S)nnc2-c2cccs2)cc1,EC50,[4],7.17 µM (active)
same,IC50,[8],> 64 µM (inactive)
same,EC50,Streptokinase A,> 150 µM (not active)
same,AC50,Cytochrome P450 2D6,3.55 µM (inconclusive)
same,EC50,Streptococcus,15.6 µM (active)
Cc1ccc(CCNC(=O)c2cc(S(=O)(=O)N3CCCCC3)c[nH]2)cc1,EC50,[7],> 50 µM (active)
